# According to patent US20220079913A1, “DIHYDROMYRICETIN WITH ANTI-ALCOHOLIC EFFECT” (Shanghai Spark Pharmaceutical Co., Ltd., priority 2020, published 2022):
# What was measured:
# [1] = Acute toxicity of dihydromyricetin, single oral gavage; format: in vivo, mice; settings: ICR, mouse, in vivo, po
# Method: (§1) Observation of the Acute Toxicity of Dihydromyricetin on ICR Mice
# (§2) Preparation of test substance: weighing the test substance of the required quality; adding sterile water for injection to prepare it to the required concentration; mixing well before administration.
# (§3) Animal breeds and strains: ICR mice
# (§4) After the adaptation period, 30 experimental animals were divided into 3 groups, half male and […]. After fasting for 12 hours, according to the body weight, the control reagents or the test substance were administered orally respectively. The animal's clinical symptoms after administration are observed, with abnormal records. The animals were weighed before the administration and on the 1, 3, 5, and 7 days after the administration. At the end of the experiment, the animals were euthanized by inhalation of excessive CO2
# ICR mice [2] = test: as above; format: in vivo
# Method: as §1, §2, §3, §4
# ICR mice [3] = test: Anti-alcoholic (hangover) test; format: in vivo; settings: for Number of deaths / Number of drunks: 20 animals; for Number of deaths / Number of drunks / Drunkenness rate / Mortality rate: after 10 hours of drinking
# Method: as §2, §3
# 60 experimental animals were divided into 3 groups, half male and […]. After fasting for 12 hours, according to the body weight, the control reagents the test substance were administered orally respectively.
# [4] = cited from earlier work
structure (smiles),measurement,setting,value
"O=C1c2c(O)cc(O)cc2OC(c2cc(O)c(O)c(O)c2)C1O [Dihydromyricetin, (2R,3R)-3,5,7-trihydroxy-2-(3,4,5-trihydroxyphenyl) benzodihydropyran-4-one]",MTD at 7 days,[1],5000 mg/kg
same,Mortality rate,"ICR mice [2]; 3500 mg/kg i.g. once, day 0",0%
same,Mortality rate,"ICR mice [2]; 3500 mg/kg i.g. once, day 1",0%
same,Mortality rate,"ICR mice [2]; 3500 mg/kg i.g. once, day 2",0%
same,Mortality rate,"ICR mice [2]; 3500 mg/kg i.g. once, day 3",0%
same,Mortality rate,"ICR mice [2]; 3500 mg/kg i.g. once, day 4",0%
same,Mortality rate,"ICR mice [2]; 3500 mg/kg i.g. once, day 5",0%
same,Mortality rate,"ICR mice [2]; 3500 mg/kg i.g. once, day 6",0%
same,Mortality rate,"ICR mice [2]; 3500 mg/kg i.g. once, day 7",0%
same,Mortality rate,"ICR mice [2]; 5000 mg/kg i.g. once, day 0",0%
same,Mortality rate,"ICR mice [2]; 5000 mg/kg i.g. once, day 1",0%
same,Mortality rate,"ICR mice [2]; 5000 mg/kg i.g. once, day 2",0%
same,Mortality rate,"ICR mice [2]; 5000 mg/kg i.g. once, day 3",0%
same,Mortality rate,"ICR mice [2]; 5000 mg/kg i.g. once, day 4",0%
same,Mortality rate,"ICR mice [2]; 5000 mg/kg i.g. once, day 5",0%
same,Mortality rate,"ICR mice [2]; 5000 mg/kg i.g. once, day 6",0%
same,Mortality rate,"ICR mice [2]; 5000 mg/kg i.g. once, day 7",0%
same,mortality rate during the test period,"ICR mice [2]; 3500 and 5000 mg/kg, single oral administration",0
same,Sobering time,ICR mice [3]; 350 mg/kg i.g. once,376.35 min
same,Tolerance time,ICR mice [3]; 350 mg/kg i.g. once,77.40 min
same,Number of deaths,ICR mice [3]; 350 mg/kg i.g. once,0
same,Number of drunks,ICR mice [3]; 350 mg/kg i.g. once,19
same,Drunkenness rate,ICR mice [3]; 350 mg/kg i.g. once,95%
same,Mortality rate,ICR mice [3]; 350 mg/kg i.g. once,0%
same,Sobering time,ICR mice [3]; 1050 mg/kg i.g. once,214.32 min
same,Tolerance time,ICR mice [3]; 1050 mg/kg i.g. once,193.00 min
same,Number of deaths,ICR mice [3]; 1050 mg/kg i.g. once,1
same,Number of drunks,ICR mice [3]; 1050 mg/kg i.g. once,14
same,Drunkenness rate,ICR mice [3]; 1050 mg/kg i.g. once,70%
same,Mortality rate,ICR mice [3]; 1050 mg/kg i.g. once,5%
same,Sobering time,"ICR mice [3]; 1050 mg/kg i.g. once, listed as dihydromyricetin",214 min
same,sobering time compared with the control group,"ICR mice [3]; 1050 mg/kg, control group 324 min, statistically different",significantly lower
same,solubility in chloroform and petroleum ether,[4]; chloroform and petroleum ether,hardly soluble
same,solubility in ethyl acetate,[4]; ethyl acetate,very slightly soluble
same,"solubility in methanol, ethanol and acetone","[4]; methanol, ethanol and acetone",easily soluble
same,solubility in water,[4]; room temperature and cold water,Low solubility
